Results as given in PubChem BioAssay (NCI).
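48-hour exposure; five concentrations; linearly interpolated endpoints. The concentration for 50% growth inhibition is given as GI50. TGI is the concentration that stops growth completely.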

Legend:
Experiment in all cases: DTP human tumour cell line panel, 48 h; in the data active means GI50 below about 0.43 µM; inactive means the rest
EKVX NSCLC = test system: EKVX NSCLC
HCT-15 colon = test system: HCT-15 colon
SF-539 CNS = test system: SF-539 CNS
T-47D breast = test system: T-47D breast
MOLT-4 leukemia = test system: MOLT-4 leukemia
SNB-19 CNS = test system: SNB-19 CNS
U251 CNS = test system: U251 CNS
OVCAR-4 ovarian = test system: OVCAR-4 ovarian
RXF 393 renal = test system: RXF 393 renal
COLO 205 colon = test system: COLO 205 colon
RPMI-8226 leukemia = test system: RPMI-8226 leukemia
SN12C renal = test system: SN12C renal
KM12 colon = test system: KM12 colon
HCT-116 colon = test system: HCT-116 colon
SR leukemia = test system: SR leukemia
OVCAR-3 ovarian = test system: OVCAR-3 ovarian
SF-268 CNS = test system: SF-268 CNS
SNB-75 CNS = test system: SNB-75 CNS
BT-549 breast = test system: BT-549 breast
NCI-H460 lung = test system: NCI-H460 lung
K-562 leukemia = test system: K-562 leukemia
MDA-MB-435 = test system: MDA-MB-435
CCRF-CEM leukemia = test system: CCRF-CEM leukemia
A549 NSCLC = test system: A549 NSCLC
UACC-62 melanoma = test system: UACC-62 melanoma
HT29 colon = test system: HT29 colon
MDA-MB-231 breast = test system: MDA-MB-231 breast
MCF7 breast = test system: MCF7 breast
M14 melanoma = test system: M14 melanoma
OVCAR-8 ovarian = test system: OVCAR-8 ovarian
NCI/ADR-RES ovarian = test system: NCI/ADR-RES ovarian
DU-145 prostate = test system: DU-145 prostate
NCI-H522 lung = test system: NCI-H522 lung
TK-10 renal = test system: TK-10 renal
NCI-H23 lung = test system: NCI-H23 lung
SF-295 CNS = test system: SF-295 CNS
PC-3 prostate = test system: PC-3 prostate
UO-31 renal = test system: UO-31 renal
SK-OV-3 ovarian = test system: SK-OV-3 ovarian
ACHN renal = test system: ACHN renal
HOP-62 NSCLC = test system: HOP-62 NSCLC
HCC-2998 colon = test system: HCC-2998 colon
IGROV1 ovarian = test system: IGROV1 ovarian
OVCAR-5 ovarian = test system: OVCAR-5 ovarian
786-0 renal = test system: 786-0 renal
UACC-257 melanoma = test system: UACC-257 melanoma
SK-MEL-5 melanoma = test system: SK-MEL-5 melanoma
MDA-N = test system: MDA-N
LOX IMVI melanoma = test system: LOX IMVI melanoma
SK-MEL-28 melanoma = test system: SK-MEL-28 melanoma
SW-620 colon = test system: SW-620 colon
SK-MEL-2 melanoma = test system: SK-MEL-2 melanoma
CAKI-1 renal = test system: CAKI-1 renal
HOP-92 NSCLC = test system: HOP-92 NSCLC
MALME-3M melanoma = test system: MALME-3M melanoma
NCI-H226 lung = test system: NCI-H226 lung
A498 renal = test system: A498 renal

COc1ccc(N[C@H](CSc2ccc(C)cc2)c2ccc(F)cc2)cc1
> 100 µM: TGI (EKVX NSCLC) | TGI (HCT-15 colon) | TGI (SF-539 CNS) | TGI (T-47D breast) | TGI (MOLT-4 leukemia) | TGI (SNB-19 CNS) | TGI (U251 CNS) | TGI (OVCAR-4 ovarian) | TGI (RXF 393 renal) | TGI (COLO 205 colon) | TGI (RPMI-8226 leukemia) | TGI (SN12C renal) | TGI (KM12 colon) | TGI (HCT-116 colon) | TGI (SR leukemia) | TGI (OVCAR-3 ovarian) | TGI (SF-268 CNS) | TGI (SNB-75 CNS) | TGI (BT-549 breast) | TGI (NCI-H460 lung) | TGI (K-562 leukemia) | TGI (MDA-MB-435) | TGI (CCRF-CEM leukemia) | TGI (A549 NSCLC) | TGI (UACC-62 melanoma) | TGI (HT29 colon) | TGI (MDA-MB-231 breast) | TGI (MCF7 breast) | TGI (M14 melanoma) | TGI (OVCAR-8 ovarian) | TGI (NCI/ADR-RES ovarian) | TGI (DU-145 prostate) | TGI (NCI-H522 lung) | TGI (TK-10 renal) | TGI (NCI-H23 lung) | TGI (SF-295 CNS) | TGI (PC-3 prostate) | TGI (UO-31 renal) | TGI (SK-OV-3 ovarian) | TGI (ACHN renal) | TGI (HOP-62 NSCLC) | TGI (HCC-2998 colon) | TGI (IGROV1 ovarian) | TGI (OVCAR-5 ovarian) | TGI (786-0 renal) | TGI (UACC-257 melanoma) | TGI (SK-MEL-5 melanoma) | TGI (MDA-N) | TGI (LOX IMVI melanoma) | TGI (SK-MEL-28 melanoma) | TGI (SW-620 colon) | TGI (SK-MEL-2 melanoma) | TGI (CAKI-1 renal)

C=C(C)CCC(=O)[C@](C)(O)[C@H]1[C@H](O)C[C@@]2(C)[C@@H]3CCc4c(cc(OC5OC(CO)C(O)C(O)C5O)c(O)c4C)C3(C)C(=O)C[C@]12C (some centres not stated)
> 100 µM: TGI (HOP-92 NSCLC) | TGI (EKVX NSCLC) | TGI (HCT-15 colon) | TGI (SF-539 CNS) | TGI (T-47D breast) | TGI (MOLT-4 leukemia) | TGI (SNB-19 CNS) | TGI (U251 CNS) | TGI (OVCAR-4 ovarian) | TGI (RXF 393 renal) | TGI (COLO 205 colon) | TGI (SN12C renal) | TGI (KM12 colon) | TGI (HCT-116 colon) | TGI (SR leukemia) | TGI (OVCAR-3 ovarian) | TGI (SF-268 CNS) | TGI (SNB-75 CNS) | TGI (BT-549 breast) | TGI (NCI-H460 lung) | TGI (K-562 leukemia) | TGI (MDA-MB-435) | TGI (CCRF-CEM leukemia) | TGI (A549 NSCLC) | TGI (UACC-62 melanoma) | TGI (MALME-3M melanoma) | TGI (HT29 colon) | TGI (MDA-MB-231 breast) | TGI (MCF7 breast) | TGI (M14 melanoma) | TGI (OVCAR-8 ovarian) | TGI (NCI/ADR-RES ovarian) | TGI (DU-145 prostate) | TGI (NCI-H226 lung) | TGI (NCI-H522 lung) | TGI (TK-10 renal) | TGI (NCI-H23 lung) | TGI (SF-295 CNS) | TGI (PC-3 prostate) | TGI (UO-31 renal) | TGI (SK-OV-3 ovarian) | TGI (ACHN renal) | TGI (HOP-62 NSCLC) | TGI (HCC-2998 colon) | TGI (A498 renal) | TGI (IGROV1 ovarian) | TGI (OVCAR-5 ovarian) | TGI (786-0 renal) | TGI (UACC-257 melanoma) | TGI (SK-MEL-5 melanoma) | TGI (MDA-N) | TGI (LOX IMVI melanoma) | TGI (SK-MEL-28 melanoma) | TGI (SW-620 colon) | TGI (SK-MEL-2 melanoma) | TGI (CAKI-1 renal)

COc1cc(C2c3cc4c(cc3OC(NN=C(C)C)C2C)OCO4)cc(OC)c1O (configuration not stated)
48.5 µM: TGI (SNB-75 CNS)
11.6 µM: TGI (MDA-N)
31.6 µM: TGI (HCC-2998 colon)
55.9 µM: TGI (SK-MEL-2 melanoma)
25.3 µM: TGI (NCI-H522 lung)
38.1 µM: TGI (SK-MEL-5 melanoma)
56.1 µM: TGI (SF-539 CNS)
16.5 µM: TGI (SR leukemia)
31.2 µM: TGI (RPMI-8226 leukemia)
> 100 µM: TGI (HOP-92 NSCLC) | TGI (HCT-15 colon) | TGI (T-47D breast) | TGI (SNB-19 CNS) | TGI (U251 CNS) | TGI (OVCAR-4 ovarian) | TGI (RXF 393 renal) | TGI (COLO 205 colon) | TGI (SN12C renal) | TGI (KM12 colon) | TGI (HCT-116 colon) | TGI (OVCAR-3 ovarian) | TGI (SF-268 CNS) | TGI (BT-549 breast) | TGI (A549 NSCLC) | TGI (UACC-62 melanoma) | TGI (MALME-3M melanoma) | TGI (HT29 colon) | TGI (MDA-MB-231 breast) | TGI (MCF7 breast) | TGI (M14 melanoma) | TGI (OVCAR-8 ovarian) | TGI (NCI/ADR-RES ovarian) | TGI (DU-145 prostate) | TGI (NCI-H226 lung) | TGI (TK-10 renal) | TGI (NCI-H23 lung) | TGI (SF-295 CNS) | TGI (PC-3 prostate) | TGI (UO-31 renal) | TGI (IGROV1 ovarian) | TGI (OVCAR-5 ovarian) | TGI (786-0 renal) | TGI (UACC-257 melanoma) | TGI (SK-MEL-28 melanoma) | TGI (SW-620 colon) | TGI (CAKI-1 renal)

CCCCCCCCCC[C@H](O)[C@H]1CC[C@H]([C@H]2CC[C@H]([C@H](O)CC[C@H](O)CCCCCCC[C@@H](O)CC3=C[C@H](C)OC3=O)O2)O1
80.1 µM: TGI (MOLT-4 leukemia)
> 100 µM: TGI (HOP-92 NSCLC) | TGI (EKVX NSCLC) | TGI (HCT-15 colon) | TGI (SF-539 CNS) | TGI (T-47D breast) | TGI (SNB-19 CNS) | TGI (U251 CNS) | TGI (OVCAR-4 ovarian) | TGI (SN12C renal) | TGI (KM12 colon) | TGI (HCT-116 colon) | TGI (OVCAR-3 ovarian) | TGI (SF-268 CNS) | TGI (BT-549 breast) | TGI (NCI-H460 lung) | TGI (MDA-MB-435) | TGI (CCRF-CEM leukemia) | TGI (A549 NSCLC) | TGI (MALME-3M melanoma) | TGI (MDA-MB-231 breast) | TGI (MCF7 breast) | TGI (M14 melanoma) | TGI (OVCAR-8 ovarian) | TGI (NCI/ADR-RES ovarian) | TGI (NCI-H226 lung) | TGI (NCI-H522 lung) | TGI (TK-10 renal) | TGI (NCI-H23 lung) | TGI (SF-295 CNS) | TGI (PC-3 prostate) | TGI (UO-31 renal) | TGI (ACHN renal) | TGI (HCC-2998 colon) | TGI (A498 renal) | TGI (IGROV1 ovarian) | TGI (OVCAR-5 ovarian) | TGI (786-0 renal) | TGI (UACC-257 melanoma) | TGI (MDA-N) | TGI (LOX IMVI melanoma) | TGI (SK-MEL-28 melanoma) | TGI (SW-620 colon) | TGI (SK-MEL-2 melanoma) | TGI (CAKI-1 renal)
67.8 µM: TGI (K-562 leukemia)
79.7 µM: TGI (SNB-75 CNS)
88 µM: TGI (RXF 393 renal)
3.93 µM: TGI (SK-MEL-5 melanoma)
inactive: GI50 (HOP-92 NSCLC) > 100 µM | GI50 (T-47D breast) 2.17 µM | GI50 (MOLT-4 leukemia) 19.9 µM | GI50 (U251 CNS) > 100 µM | GI50 (KM12 colon) 38.1 µM | GI50 (SF-268 CNS) > 100 µM | GI50 (MDA-MB-435) 40.3 µM | GI50 (CCRF-CEM leukemia) 3.12 µM | GI50 (A549 NSCLC) 7.18 µM | GI50 (MDA-MB-231 breast) > 100 µM | GI50 (MCF7 breast) 3.98 µM | GI50 (NCI/ADR-RES ovarian) 16.5 µM | GI50 (NCI-H226 lung) > 100 µM | GI50 (UO-31 renal) 23.6 µM | GI50 (ACHN renal) 10 µM | GI50 (A498 renal) 89.4 µM | GI50 (OVCAR-5 ovarian) > 100 µM | GI50 (MDA-N) 6.36 µM | GI50 (LOX IMVI melanoma) 1.26 µM | GI50 (SK-MEL-28 melanoma) > 100 µM | GI50 (SW-620 colon) > 100 µM
78.5 µM: TGI (COLO 205 colon)
10.5 µM: TGI (RPMI-8226 leukemia)
